In ChEMBL document CHEMBL4414629, “Macroline-Sarpagine Bisindole Alkaloids with Antiproliferative Activity from Alstonia penangiana” (J Nat Prod, 2019):

Experiments:
KB/VJ300 [1] = experiment: Antiproliferative activity against human vincristine-rsistant KB/VJ300 cells assessed as reduction in cell growth after 72 hrs by MTT assay; assay type: functional, cell-based; settings: KB/VJ300, 72 h
[2] = Antiproliferative activity against human KB/S cells assessed as reduction in cell growth after 72 hrs by MTT assay; assay type: functional, cell-based
KB/VJ300 [3] = experiment: Antiproliferative activity against human KB/VJ300 cells assessed as reduction in cell growth after 72 hrs by MTT assay; assay type: functional, cell-based; settings: KB/VJ300, 72 h
MDA-MB-231 = experiment: Antiproliferative activity against human MDA-MB-231 cells assessed as reduction in cell growth after 72 hrs by MTT assay; assay type: functional, cell-based; settings: MDA-MB-231, 72 h
MRC5 = experiment: Cytotoxicity against human MRC5 cells assessed as reduction in cell growth after 72 hrs by MTT assay; assay type: cell-based; settings: MRC5, 72 h
HCT-116 = experiment: Antiproliferative activity against human HCT116 cells assessed as reduction in cell growth after 72 hrs by MTT assay; assay type: functional, cell-based; settings: HCT-116, 72 h
A549 = experiment: Antiproliferative activity against human A549 cells assessed as reduction in cell growth after 72 hrs by MTT assay; assay type: functional, cell-based; settings: A549, 72 h
MCF7 = experiment: Antiproliferative activity against human MCF7 cells assessed as reduction in cell growth after 72 hrs by MTT assay; assay type: functional, cell-based; settings: MCF7, 72 h
PC-3 = experiment: Antiproliferative activity against human PC3 cells assessed as reduction in cell growth after 72 hrs by MTT assay; assay type: functional, cell-based; settings: PC-3, 72 h
LNCaP = experiment: Antiproliferative activity against human LNCAP cells assessed as reduction in cell growth after 72 hrs by MTT assay; assay type: functional, cell-based
HT-29 = experiment: Antiproliferative activity against human HT-29 cells assessed as reduction in cell growth after 72 hrs by MTT assay; assay type: functional, cell-based; settings: HT-29, 72 h
CCD-18Co = experiment: Cytotoxicity against human CCD-18Co cells assessed as reduction in cell growth after 72 hrs by MTT assay; assay type: cell-based

IC50 (KB/VJ300 [1]) [µM]	IC50 (KB/VJ300 [3]) [µM]	IC50 (MDA-MB-231) [µM]	IC50 (HCT-116) [µM]	IC50 (A549) [µM]	IC50 (MCF7) [µM]	IC50 (PC-3) [µM]	IC50 (LNCaP) [µM]	IC50 (HT-29) [µM]	Structure (SMILES)	IC50 [2] [µM]	IC50 (MRC5) [µM]	IC50 (CCD-18Co) [µM]
0.4	–	–	–	–	–	–	–	–	COc1ccc(CCN(C)CCCC(C#N)(c2ccc(OC)c(OC)c2)C(C)C)cc1OC (stereo not drawn) [VERAPAMIL]	–	–	–
–	0.8	–	–	–	–	–	–	–	CC[C@]1(O)C[C@H]2CN(CCc3c([nH]c4ccccc34)[C@@](C(=O)OC)(c3cc4c(cc3OC)N(C=O)[C@H]3[C@@](O)(C(=O)OC)[C@H](OC(C)=O)[C@]5(CC)C=CCN6CC[C@]43[C@@H]65)C2)C1 [VINCRISTINE]	0.0008	–	–
0.2	6.7	4.5	> 10	7	4.5	8.2	6.2	0.3	C/C=C1/CN2[C@H]3C[C@@H]1[C@@H](CO)[C@@H]2Cc1c3n(C)c2cc(C(C)C3=COC[C@@H]4[C@H]3C[C@H]3c5c(c6ccccc6n5C)C[C@@H]4N3C)c(OC)cc12 (stereo partly drawn)	0.6	7.9	–
3.9	> 10	4.8	> 10	> 10	5.3	> 10	3.7	0.07	C/C=C1/CN2[C@H]3C[C@@H]1[C@@H](CO)[C@@H]2Cc1c3n(C)c2cc(C[C@@H]3[C@@H]4C[C@H]5c6c(c7ccccc7n6C)C[C@@H]([C@@H]4CO[C@]3(C)OC)N5C)c(OC)cc12	1.1	> 10	–
–	5.9	4.8	4.2	9	2	6.1	–	0.07	C/C=C1/CN2[C@H]3C[C@@H]1[C@@H](CO)[C@@H]2Cc1c3n(C)c2ccc(OC)c(CC3=C(C)OC[C@@H]4[C@H]3C[C@H]3c5c(c6ccccc6n5C)C[C@@H]4N3C)c12	2.8	–	9.7
–	2.9	1.4	2.9	6.8	1.3	3.1	–	0.03	C/C=C1/CN2[C@H]3C[C@@H]1[C@@H](CO)[C@@H]2Cc1c3n(C)c2cc(C[C@H]3[C@@H]4C[C@H]5c6c(c7ccccc7n6C)C[C@@H]([C@@H]4CO[C@]3(C)OC)N5C)c(OC)cc12	2.4	–	4.3
4.2	3.6	> 10	2.1	3	8.5	> 10	–	0.02	C/C=C1/CN2[C@H]3C[C@@H]1[C@@H](CO)[C@@H]2Cc1c3n(C)c2cc(C[C@@H](C(C)=O)[C@@H]3C[C@H]4c5c(c6ccccc6n5C)C[C@@H]([C@@H]3CO)N4C)c(OC)cc12	1.7	–	5.1
8.8	5.5	4.1	1.5	3.9	7.7	> 10	–	0.03	C/C=C1/CN2[C@H]3C[C@@H]1[C@@H](CO)[C@@H]2Cc1c3n(C)c2ccc(OC)c(C[C@@H](C(C)=O)[C@@H]3C[C@H]4c5c(c6ccccc6n5C)C[C@@H]([C@@H]3CO)N4C)c12	2.5	–	4.1
